Consider one compound from US20240408071A1, “NOVEL COMBINATION OF SEROTONIN RECEPTOR (5-HTR2B) ANTAGONIST AND AN IMMUNOMODULATOR AND CHEMOTHERAPEUTIC DRUGS FOR INHIBITION OF CANCER” (NATIONAL CENTRE FOR CELL SCIENCE, priority 2021, published 2024).

For the test, the system named is MC38 tumor. Briefly: Adoptive transfer of lymph node cells into NRG mice bearing MC38 and B16F10 tumors: MC38 flank. The following applies: donor mice treated 10 days; tumor-draining lymph node cells; MC38 flank (FIG. 11B). The test is classed as in vivo. The procedure: FIG. 11 depicts the effect of 5-HTR antagonists on the antigen-specific CTL response MC38 tumor model in mice: (A) Representative experimental plan of the adoptive transfer experiment where NRG mice. In brief, NRG mice were inoculated with MC38 on one flank and B16F10 cells on the other. These mice received total lymph node cells from naïve C57BL/6J mice or MC38 tumor-bearing control or RS-127445 treated mice. (B) Tumor volume data from the above-described experiment was measured and plotted (C) Immunocytochemistry data showing expression of H2-Kb-[…]^+ (red) on MC38 cells transfected with pCL-neo-OVA plasmid on the right side and MC38 cells without transfection. DAPI is used as a counterstain. (D-E) C7BL/6J mice were inoculated with an MC38-ova cell line and treated with RS-127445 or left untreated. After 10 days of such treatment, Total lymph node cells were harvested tagged with CFSE, and cultured in the presence of ovalbumin protein (50 μg/ml) for 5 days. After 5 days cells were checked for CFSE expression by flow cytometry to check proliferation. Here is the data (D) showing the CFSE in CD8^+ cells. The statistical data of the total percentage of CFSE^− CD8 T cells corresponding with the percentage of proliferated CD8 T cells were plotted. […]

Regarding `CC(C)c1cc(-c2ccc(F)c3ccccc23)nc(N)n1` [RS-127445], the “MC38 tumor growth after transfer of antagonist primed total immune cells” value is listed as “able to control MC38 tumor growth”.
